From ChEMBL document CHEMBL3739418, “RGD-peptides modifying dexamethasone: to enhance the anti-inflammatory efficacy and limit the risk of osteoporosis” (Medchemcomm, 2015)
Each block holds one molecule with its values, some of them ahead of it. The source made the active and inactive calls. No cut-off for these calls is given here. Residues, ends and D or L forms follow the SMILES beside them. *: point of attachment. Succinyl(O21-dexamethasone) = C[C@@H]1C[C@H]2[C@@H]3CCC4=CC(=O)C=C[C@]4(C)[C@@]3(F)[C@@H](O)C[C@]2(C)[C@@]1(O)C(=O)COC(=O)CCC(=O)*

Legend:
[1] = test system: Mus musculus; assay: Toxicity in BALB/C mouse assessed as total volumetric bone mineral density at 1.43 umol/kg/day, po administered for 15 days (reference value: 554.3 +/- 17.2 mg/cm3); type: organism-based; conditions: in vivo, 360 h
[2] = test system: Mus musculus; assay: Toxicity in BALB/C mouse assessed as decrease in dry femur weight at 1.43 umol/kg/day, po administered for 15 days; type: organism-based; conditions: in vivo, 360 h
[3] = test system: Mus musculus; assay: Antiinflammatory activity in xylene-induced ICR mouse edema model assessed as decrease in plasma TNFalpha level at 25.5 umol/kg, po after 60 mins by microplate reader analysis; type: functional, organism-based
[4] = test system: A549; assay: Downregulation of DNA replication in human A549 cells at 1 uM after 48 hrs by UV-visible spectrophotometric analysis; type: functional, cell-based
[5] = Drug metabolism in cytosome of human A549 cells assessed as dexamethasone dimer formation at 1 uM by ESI-MS analysis; type: ADME, cell-based, Cytoplasm; conditions: a549, 1 µM
[6] = test system: Mus musculus; assay: Antiinflammatory activity in ICR mouse assessed as inhibition of xylene-induced edema at 25.5 umol/kg, po administered for 30 mins prior to xylene challenge measured after 2 hrs; type: functional, organism-based
[7] = test system: Mus musculus; assay: Antiinflammatory activity in xylene-induced ICR mouse edema model assessed as decrease in plasma IL8 level at 25.5 umol/kg, po after 60 mins by microplate reader analysis; type: functional, organism-based
[8] = test system: Mus musculus; assay: Antiinflammatory activity in po dosed ICR mouse assessed as inhibition of xylene-induced edema administered for 30 mins prior to xylene challenge measured after 2 hrs; type: functional, organism-based
[9] = test system: Mus musculus; assay: Toxicity in BALB/C mouse assessed as decrease in femur calcium level at 1.43 umol/kg/day, po administered for 15 days by o-methylphenolphthalein complexing ketone-based assay; type: organism-based; conditions: in vivo, 360 h
[10] = test system: Mus musculus; assay: Toxicity in BALB/C mouse assessed as femur loss at 1.43 umol/kg/day, po administered for 15 days by pQCT analysis; type: organism-based; conditions: in vivo, 360 h
[11] = test system: Mus musculus; assay: Toxicity in BALB/C mouse assessed as decrease in femur phosphor level at 1.43 umol/kg/day, po administered for 15 days by molybdenum blue-based assay; type: organism-based; conditions: in vivo, 360 h
[12] = test system: Mus musculus; assay: Toxicity in BALB/C mouse assessed as decrease in ash weight at 1.43 umol/kg/day, po administered for 15 days; type: organism-based; conditions: in vivo, 360 h

- Drug metabolism [5]: metabolite_detected
SMILES: C[C@@H]1C[C@H]2[C@@H]3CCC4=CC(=O)C=C[C@]4(C)[C@@]3(F)[C@@H](O)C[C@]2(C)[C@@]1(O)C(=O)COC(=O)CCC(=O)N[C@@H](CCCNC(=N)N)C(=O)NCC(=O)N[C@@H](CC(=O)O)C(=O)N[C@@H](Cc1ccccc1)C(=O)O ({Succinyl(O21-dexamethasone)}-RGDF-OH)
- Activity [1]: 555.1 mg/cm3
- Activity [2]: Non-toxic
- Activity [3]: Active
- Activity [4]: Active
- inhibition [6]: Active
- Activity [7]: Active

- Drug metabolism [5]: metabolite_detected
SMILES: C[C@@H]1C[C@H]2[C@@H]3CCC4=CC(=O)C=C[C@]4(C)[C@@]3(F)[C@@H](O)C[C@]2(C)[C@@]1(O)C(=O)COC(=O)CCC(=O)N[C@@H](CCCNC(=N)N)C(=O)NCC(=O)N[C@@H](CC(=O)O)C(=O)N[C@@H](CO)C(=O)O ({Succinyl(O21-dexamethasone)}-RGDS-OH)
- Activity [1]: 558.5 mg/cm3
- Activity [2]: Non-toxic
- Activity [3]: Active
- Activity [4]: Active
- inhibition [8]: Dose-dependent effect
- Activity [7]: Active

- Drug metabolism [5]: metabolite_detected
SMILES: CC(C)[C@H](NC(=O)[C@H](CC(=O)O)NC(=O)CNC(=O)[C@H](CCCNC(=N)N)NC(=O)CCC(=O)OCC(=O)[C@@]1(O)[C@H](C)C[C@H]2[C@@H]3CCC4=CC(=O)C=C[C@]4(C)[C@@]3(F)[C@@H](O)C[C@@]21C)C(=O)O ({Succinyl(O21-dexamethasone)}-RGDV-OH)
- Activity [1]: 540.3 mg/cm3
- Activity [2]: Non-toxic
- Activity [3]: Active
- Activity [4]: Active
- inhibition [6]: Active
- Activity [7]: Active

SMILES: C[C@@H]1C[C@H]2[C@@H]3CCC4=CC(=O)C=C[C@]4(C)[C@@]3(F)[C@@H](O)C[C@]2(C)[C@@]1(O)C(=O)CO [DEXAMETHASONE]
- Activity [9]: Toxic
- Activity [10]: Toxic
- Activity [1]: 506.3 mg/cm3
- Activity [2]: Toxic
- Activity [3]: Active
- Activity [4]: Active
- Activity [11]: Non-toxic
- Activity [12]: Toxic
- inhibition [6]: Active
- Activity [7]: Active
